Here are results for one compound from patent US20190022114A1, “METHODS AND COMPOSITIONS FOR REDUCING BODY WEIGHT AND INCREASING GUT MOTILITY” (priority 2016, published 2019).

Data set [1] deals with LEPR (Leptin Receptor) mutants. As to the kind of experiment: Weight loss and fat loss effect of D-ribose in mouse obesity model. The note with it: 48 days. The data set is classed as in vivo. How it is done: Classic obesity model LEPR (Leptin Receptor) mutants (Age 42 day, male) and wild-type FVB strain mice were used in the testing.
D-ribose was feed to mice in D-ribose water solution at concentrations indicated (75 mg/ml and 50 mg/ml). Control animals were feed with water. All animals were fed on normal diet. There was no restriction on the amount of liquid or food consumption.
The liquid and food consumption were measured at 4 day intervals. The actual D-ribose consumption for each animal was calculated based on its liquid intake volume.
Mouse body fat was measured using MiniSpec NMR Analyzer.
P-values were calculated using t-test (unpaired, 2 tails) for data points after 48 days of treatment.
Test results were shown in FIG. 1 and FIG. 2, wherein Square (▪) represents the treatment group, and Circle (●) represents control group. Classic obesity model LEPR (Leptin Receptor) mutants (Age 42 day, male) were used in the testing. The control group was fed with water. Animals were fed on normal diet.

The next data set deals with C57BL/6 mice. As to the kind of experiment: Whole gut transit time (carmine gavage). It counts as in vivo, mouse. The note with it: 0.5 ml 75 mg/ml oral gavage, p value=0.004. On the procedure:
D-ribose was administered to C57BL/6 mice of 8 weeks old. Before administering, mice were fasted for 18 hours with free access to water and housed on a mesh plate without bedding. The mice were orally fed with 0.5 ml carmine solution (6% carmine in 0.5% methylcellulose) containing either 75 mg/ml D-ribose or xylose. After oral force gavage, mice were returned to individually housed mesh bottom cages, which were placed on a white sheet. Whole gut transit time is the time taken from carmine meal gavage to the appearance of the first red fecal pellets.

Another data set deals with Wistar rats. The note with it: 13 weeks, cited from earlier work.

For `O=C[C@H](O)[C@H](O)[C@H](O)CO` [D-ribose], the “fat gain (body fat measurement)” value in data set [1] (50 mg/ml in water, 20.59 gram/kg/day, data not shown) was “reduced fat gain but not statistically significant”. Also, in data set [1] (50 mg/ml in water, 20.59 gram/kg/day, obese LEPR mutant male mice, p-value 0.001), the “weight gain vs control animals” value is recorded as “statistically significantly decreased weight gain”. Also, the “body fat (NMR) vs control animals” value in data set [1] (75 mg/ml in water, 30.03 gram/kg/day, obese LEPR mutant male mice, p-value 0.00015) was “fat loss”. For the same compound, in data set [1] (75 mg/ml in water, 30.03 gram/kg/day, obese LEPR mutant male mice, p-value 0.01), the “body weight vs control animals” value is “statistically significant weight loss”. Moreover, in the data set with C57BL/6 mice, the “gut transition time vs xylose control” value is “shortened gut transition time”. Also, the “NOAEL, females” value in the data set with Wistar rats (female rats, 5% in diet) is 4.4 g/kg body weight/day. Also, in the data set with Wistar rats (male rats, 5% in diet), the “NOAEL, males” value is reported as 3.6 g/kg body weight/day. Moreover, the “no observed adverse effect level (NOAEL), concentration in the diet” value in the data set on Wistar rats (rats, in diet) is given as 5%. For the same compound, the “effect at up to 20% of diet” value with Wistar rats (rats, up to 20% of diet (15.0 and 15.7 g/kg body weight/day males and females)) is recorded as “nutritional but not toxicological effect”.
